Molecules are shown by their SMILES.

The results in this text go back to US6420416B2, “Method of treating epilepsy” (Daiichi Pharmaceutical Co., Ltd., priority 2000, dated 2002).

In this assay the test system is rats subjected to a central fluid percussion injury. As to the kind of experiment: Morris water maze after central fluid percussion injury (traumatic brain injury model). Type of assay: in vivo, rat. As for the experimental part: As shown in the graph, administration of nefiracetam at 3 mg/kg and 9 mg/kg were tested against a control group treated only with the pharmacological carrier ([…]). The rats were subjected to a central fluid percussion injury, which is a typical animal model for traumatic brain injury. Beginning one day after the injury, the rats were subjected to daily oral drug administrations at the 3 and 9 mg/kg dosage levels. The administration solutions contained the nefiracetam in […] at a concentration sufficient to provide the required dosage level in a single 1 ml/kg dosage of solution. The rats were then tested in the Morris water maze on days 11-15 after injury. On the days that the rats were tested, the drug was administered 15 minutes prior to testing. […] The improvement seen at the 9 mg/kg dosage correlates to a reduction in the cognitive deficit by 55% compared to the control.

As for `Cc1cccc(C)c1NC(=O)CN1CCCC1=O` [nefiracetam, N-(2,6-dimethyl-phenyl)-2(2-oxo-1-pyrrolidinyl)acetamide], the “effectiveness in the water maze” value (3 mg/kg daily oral, days 11-15 after injury) is “not significantly effective”. The “reduction in the cognitive deficit compared to the control” value (9 mg/kg daily oral from one day after injury, Morris water maze on days 11-15 after injury, drug 15 minutes prior to testing) is listed as 55%. For the same compound, the “improvement in brain function as measured by performance in the water maze” value (9 mg/kg daily oral, compared to the control and the 3 mg/kg dosage level, days 11-15 after injury) is listed as “significant improvement”.
